Assay [1] can be described thus: Glucose-induced membrane lipid peroxidation (LOOH, CHOD-iodide assay) in DLPC/cholesterol multilamellar vesicles (Example 4). The assay is classed as biochemical. The settings on record: glucose 200 mg/dL. The procedure:
Vitamin E (α-tocopherol) was also purchased from Sigma-Aldrich and prepared in ethanol at 1.0 mM (ε=3.06×10^4 M^−1 cm^−1 at 294 nm) just prior to experimental use. […] All test compounds were further diluted in ethanol or aqueous buffer as needed. Glucose was prepared in saline buffer (0.5 mM HEPES, 154 mM NaCl, pH 7.3) at 11.0 mM (200 mg/dL). CHOD-iodide color reagent (stock) was prepared, with slight modification, as described by from El-Saadani et al. (J. […] Samples were shell-dried under nitrogen gas and placed under vacuum for 1 h to remove residual solvent. […] Lipid suspensions were then vortexed for 3 min at ambient temperature to form MLVs. All MLV samples were subjected to time-dependent autoxidation by incubating at 37° C. in an uncovered, shaking water bath. This method allows lipid peroxidation to occur gradually without requiring the use of exogenous initiators. Small aliquots (5-100 μL) of each sample were removed, immediately following MLV preparation (0 hour) and after exposing samples to oxidative conditions for 72 or 96 hour, and combined with 1.0 mL of activated CHOD-iodide color reagent. Aliquot volume was reduced with each successive time point to ensure that spectrophotometric readings were within the optimal adsorption range. Test samples were covered and incubated in darkness at room temperature for at least 4 hr. Sample absorbances were then measured against a CHOD blank at 365 nm using a Beckman DU-640 spectrophotometer. The CHOD colorimetric assay is based on the oxidation of iodide (I^−) by lipid hydroperoxide (LOOH) to form triiodide (I3^−), the quantity of which is directly proportional to the amount of LOOH present in the lipid sample. The molar absorptivity (c) of I3^− is 2.46×10^4 M^−1 cm^−1 at 365 nm. […] The concentration of glucose selected was consistent with previous experimental studies of hyperglycemia under controlled laboratory conditions or observed in well-defined animal models of Type II diabetes following a glucose challenge. […] Values in FIG. 1 are mean±S.D. (N=6). EPA inhibited the peroxidative effects of glucose by 88% and 86% at 72 and 96 hours, respectively, which was highly significant (p<0.001) as compared to glucose treatment alone. […] Overall ANOVA—0 hour data: p=0.6655, F=0.4185; 72 hour data: p<0.0001, F=428.72; 96 hour data: p<0.0001, F=322.01.

The test system of assay [2] is human sdLDL. The assay can be described thus: Copper-induced sdLDL oxidation, TBARS (Example 7). The assay is classed as biochemical. The conditions noted are these: 1 hr; for effect on sdLDL oxidation: 10 μM, vs vehicle-treated controls. As to the method:
(§1) An experiment to study the antioxidant effect of EPA in LDL and small dense […] performed. […] Fenofibrate, gemfibrozil, and niacin were purchased from Sigma-Aldrich. […] Vitamin E was also incubated with sample aliquots as a positive control.

Assay [3] has as its system unfractionated LDL. The assay can be described thus: Copper-induced oxidation of unfractionated LDL, TBARS (Example 7). In kind it is biochemical, human. The settings on record: 10 μM, 1 hr, vs vehicle-treated controls. The procedure: as §1
Assay [4] is described as follows: X-ray diffraction of cholesterol domains in POPC/cholesterol model membranes, C/P 1.5:1 (Example 9). The settings on record: drug-to-phospholipid mole ratio 1:30, C/P 1.5:1. As to the method:
Multilamellar vesicles (MLVs) were prepared as binary mixtures that include palmitoyloleoylphosphatidylcholine (POPC) (1.0 mg total phospholipid per sample) and cholesterol at an elevated cholesterol-to-phospholipid (C/P) mole ratio of 1.5:1. […] Samples were shell-dried under nitrogen gas and placed under vacuum for 3 hours to remove residual solvent at room temperature. After desiccation, each sample was resuspended in saline buffer (0.5 mM HEPES, 154 mM NaCl, pH 7.3) to yield a final phospholipid concentration of 2.5 mg/mL. Lipid suspensions were then vortexed for 3 minutes at ambient temperature to form MLVs.
Briefly, a 100 μL aliquot of each MLV preparation (containing 250 μg MLV) was transferred to a Lucite® sedimentation cell fitted with an aluminum foil substrate designed to collect MLVs into a single membrane pellet upon centrifugation. Samples were then loaded into a Sorvall AH-629 swinging bucket rotor (DuPont Corp., Wilmington, Del.) and centrifuged at 35,000 g, 5° C., for 90 minutes.
After centrifugal orientation, sample supernatants were aspirated and aluminum foil substrates, each supporting a single membrane pellet, were removed from the sedimentation cells. Sample pellets were dried for 5-10 minutes at ambient conditions, mounted onto curved glass supports, and placed in hermetically-sealed, brass or glass containers (for immediate analysis or temporary storage, respectively). All x-ray diffraction experiments were conducted at 20° C., 74% relative humidity. The latter was established by exposing membrane samples to saturated solutions of […] (K2C4H4O6.½H2O) for at least 1 hour prior to experimental analysis.
Oriented membrane samples were aligned at grazing incidence with respect to a collimated, mono-chromatic CuKα x-ray beam (Kα1 and Kα2 unresolved; λ=1.54 Å) produced by a Rigaku Rotaflex RU-200, high-brilliance microfocus generator (Rigaku-MSC, The Woodlands, Tex.) as previously described (Mason et al., Biophys. J., vol. 55(4), pages 769-778 (1989)). The samples were initially subjected to x-ray diffraction analysis at least 12 hours after formation of the membrane pellets and retested for up to several days. Analytical x-rays were generated by electron bombardment of a rotating copper anode and are filtered through a thin nickel foil to provide monochromatic radiation (λ=1.54 Å). Collimation of the x-ray beam was achieved using a single Franks mirror. […]
The d-space for any given membrane multi bilayer is a measurement of the unit cell periodicity of the membrane lipid bilayer (e.g., the distance from the center of one lipid bilayer to the next including surface hydration), and is calculated from Bragg's Law, hλ=2d sin θ, where h is the diffraction order, λ is the wavelength of the x-ray radiation (1.54 Å), d is the membrane lipid bilayer unit cell periodicity, and θ is the Bragg angle equal to one-half the angle between the incident beam and scattered beam.
The presence of cholesterol domains in a given membrane sample results in the production of distinct Bragg (diffraction) peaks having singular periodicity values of 34 and 17 Å (typically referred to as first- and second-order cholesterol domain peaks). Under the specific temperature and relative humidity conditions established for these experiments, the second-order, 17 Å cholesterol domain peak was well-delineated from other, neighboring cholesterol and phospholipid diffraction peaks and was thus used to quantitate relative cholesterol domain peak intensity. […]

The test system of assay [5] is sdLDL. The assay can be described thus: Glucose-induced sdLDL oxidation, MDA/TBARS (Example 10). In kind it is biochemical, human. The settings on record: glucose 200 mg/dL; for effect on glucose-induced sdLDL oxidation: 10.0 μM. As to the method: Vitamin E (α-tocopherol) purchased from Sigma-Aldrich was prepared in ethanol at 1.0 mM (ε=3.06×10^4 M^−1 cm^−1 at 294 nm) prior to experimental use. Test compounds were further diluted in ethanol or aqueous buffer as needed. Phosphate Buffered Saline (PBS) purchased from Sigma-Aldrich was prepared in double distilled water at 10 mM (138 mM NaCl, 2.7 mM KCl, pH 7.4). […] Lipid oxidation was measured by the colorimetric detection of malondialdehyde (MDA), a marker of oxidative stress.

For assay [6], the system named is unfractionated LDL. The assay can be described thus: Copper-induced oxidation of unfractionated LDL, TBARS after 2 hr (Example 6). In kind it is biochemical, human. The settings on record: 1.0 μM to 10.0 μM (data not shown). The procedure:
Venous blood was collected from healthy volunteers into vacutainer tubes containing sodium EDTA. […] Plasma and lipoprotein fractions were maintained at 4° C. and protected from excessive exposure to light. Prior to oxidation experiments, EDTA was removed from the lipoprotein fraction using PD-10 desalting columns (GE Healthcare, Piscataway N.J.). After equilibration of the column with phosphate buffered saline (PBS), 2.5 mL of the lipoprotein fraction was loaded on the column and the flow-through discarded. The lipoprotein was then eluted with 3 mL of PBS. The LDL fractions were further diluted with PBS to obtain a 100 μg/mL apoB100 concentration.

The test system of assay [7] is human sdLDL. The assay is described as follows: Copper-induced sdLDL oxidation, TBARS after 2 hr (Example 6). In kind it is biochemical. The procedure: Venous blood was collected from healthy volunteers into vacutainer tubes containing sodium EDTA. Plasma was separated by centrifugation at 3000 g for 25 min at 4° C. and adjusted to a density of 1.020 g/mL with KBr. Triglyceride-rich lipoproteins (TGRL) and LDL fractions were then isolated by sequential centrifugation at 70,000 rpm at 4° C. in a Beckman LE-80 ultracentrifuge using a Beckman 50.4Ti rotor (Beckman Coulter, Inc., Fullerton, Calif.). The TGRL fraction (with a relative density of <1.020) was aspirated from the top of the centrifugate and discarded, leaving an LDL-enriched infranate (with a relative density of 1.020 to 1.063). The plasma LDL fraction was further fractionated into LDL1, LDL2, LDL3, and LDL4 (sdLDL) subfractions with relative densities of 1.020 to 1.035, 1.035 to 1.050, 1.050 to 1.063, and 1.063 to 1.075, respectively. The sdLDL subfraction was retained for additional experimentation. Plasma and lipoprotein fractions were maintained at 4° C. and protected from excessive exposure to light. Prior to oxidation experiments, EDTA was removed from the lipoprotein fraction using PD-10 desalting columns (GE Healthcare, Piscataway N.J.). After equilibration of the column with phosphate buffered saline (PBS), 2.5 mL of the lipoprotein fraction was loaded on the column and the flow-through discarded. The lipoprotein was then eluted with 3 mL of PBS. The LDL fractions were further diluted with PBS to obtain a 100 μg/mL apoB100 concentration.
LDL and sdLDL subfractions (0.6 mL each) were incubated with either 10 μL vehicle (ethanol) or 10 μL drug stock solution for 30 min to 1 hr at 37° C. Oxidation was initiated by the addition of 10 μM CuSO4. After 2 hr, 100 μL aliquots were removed from each subfraction and combined with 1.0 mL thiobarbituric acid (0.5%), 10 μL trichloroacetic acid (5%), 10 μL BHT (5 mg/mL in methanol), and 10 μL EDTA (5 mM). […]. Sample TBARS concentrations were determined spectrophotometrically by measuring sample absorbances against a standard curve derived from the hydrolysis of 1,1,3,3-tetramethoxypropane.

A short description of assay [8]: Small angle x-ray diffraction of glucose- and peroxidation-induced cholesterol domain formation (Example 4). The conditions noted are these: any time point (0, 72, 96 h), 1:30, glucose 200 mg/dL, vs control. As to the method:
After centrifugal orientation, sample supernatants were aspirated and aluminum foil substrates, each supporting a single membrane pellet, were removed from the sedimentation cells. […] All x-ray diffraction experiments were conducted at 20° C., 74% relative humidity.
Oriented membrane samples were aligned at grazing incidence with respect to a collimated, mono-chromatic CuKα x-ray beam (Kα1 and Kα2 unresolved; λ=1.54 Å) produced by a Rigaku Rotaflex RU-200, high-brilliance microfocus generator (Rigaku-MSC, The Woodlands, Tex.) as previously described (Mason et al., Biophys. J., vol. 55(4), pages 769-778 (1989)).
Routines written in Origin 8.6 (OriginLab Corporation, Northampton, Mass.) were used to determine total peak area (associated with all diffraction peaks in a given pattern) against which the second-order cholesterol domain peak was normalized.

Molecules are shown by their SMILES.

`CC(C)c1c(C(=O)Nc2ccccc2O)c(-c2ccccc2)c(-c2ccc(F)cc2)n1CC[C@@H](O)C[C@@H](O)CC(=O)O` [ATM, Atorvastatin ortho- (o-) hydroxy (active) metabolite]: the “antioxidant effect on glucose-induced LOOH formation” value in assay [1] (1.0 μM, 96 hours) is “potent antioxidant effects”.
For `CC(C)c1c(C(=O)Nc2ccccc2)c(-c2ccccc2)c(-c2ccc(F)cc2)n1CC[C@@H](O)C[C@@H](O)CC(=O)O` [atorvastatin], in assay [2], the “effect on sdLDL oxidation” value is on record as “did not have any significant antioxidant activity”. For the same compound, the “inhibition of sdLDL oxidation (TBARS formation)” value in assay [2] (each agent at 10 μM, vs vehicle) was 0.1±7%. Moreover, in assay [3], the “effect on unfractionated LDL oxidation” value is reported as “did not have any significant antioxidant activity”.
For the compound `CC1(C)[C@@H](O[C@H]2O[C@H](C(=O)O)[C@@H](O)[C@H](O)[C@H]2O[C@@H]2O[C@H](C(=O)O)[C@@H](O)[C@H](O)[C@H]2O)CC[C@]2(C)[C@H]3C(=O)C=C4[C@@H]5C[C@@](C)(C(=O)O)CC[C@]5(C)CC[C@@]4(C)[C@]3(C)CC[C@@H]12` [Glyc, glycyrrhizin], the “reduction in cholesterol domain peaks vs vehicle” value in assay [4] is 54.9%.
On to `Cc1ccc(C)c(OCCCC(C)(C)C(=O)O)c1` [Gemfibrozil, gemfibrozil], for which the “effect on glucose-induced sdLDL oxidation” value in assay [5] is given as “did not inhibit”. Moreover, in assay [2], the “effect on sdLDL oxidation” value is recorded as “no significant effect”. Besides, in assay [3], the “effect on unfractionated LDL oxidation” value is “no significant effect”. In addition, in assay [4], the “% change Vs control (cholesterol domain peak intensity)” value was found to be 10.9 ± 43.3% and the “effect on cholesterol domains” value was “no significant changes in cholesterol domain size”.
On to `Cc1c(C)c2c(c(C)c1O)CC[C@@](C)(CCC[C@H](C)CCC[C@H](C)CCCC(C)C)O2` [vitamin E, α-tocopherol], for which the “effect on LDL oxidation” value in assay [6] is recorded as “did not inhibit LDL oxidation at any concentration”. For the same compound, the “effect on glucose-induced sdLDL oxidation” value in assay [5] is recorded as “failed to inhibit sdLDL oxidation”. The “increase in sdLDL oxidation” value in assay [5] (vs glucose-treated controls) was determined as 63%. The “effect on LOOH formation / lipid peroxidation” value in assay [1] (72- and 96-hour time points, 1:30 drug-to-phospholipid mole ratio) is “no significant effect”. Further, the “effect on sdLDL oxidation” value in assay [7] (1.0 μM to 10.0 μM) is “did not inhibit sdLDL oxidation except at the highest concentration”; in assay [2], “no significant effect”. For the same compound, in assay [7] (10.0 μM, 10 μM CuSO4, vs vehicle), the “reduction of TBARS levels” value is 26%. In addition, the “effect on cholesterol domain formation” value in assay [8] was “no significant effect”. For the same compound, the “effect on unfractionated LDL oxidation” value in assay [3] was “no significant effect”.

The values are drawn from patent US11446269B2, “Methods of reducing or preventing oxidation of small dense LDL or membrane polyunsaturated fatty acids” (Amarin Pharmaceuticals Ireland Limited, priority 2014, dated 2022).
